The results in this text go back to patent publication US7495127B2, “Potassium channel opener” (Mitsubishi Tanabe Pharma Corporation, priority 2001, dated 2009).

Assay [1] concerns the target T1, BKαβ1 (Rattus norvegicus, UniProt Q62976).
T1 construct: expressed in transfected cells; host or cells: HEK293
Kind of assay: Concentration-dependent block of macroscopic currents by ChTX in HEKBKαβ1, in the absence and presence of pimaric acid. The class given is cell-based. From the text:
The outward currents elicited by depolarization from −60 mV in 10 mV steps were enhanced at potentials positive to −20 mV. The current at +40 mV was increased from 1214±153 to 2527±448 pA (n=5, p<0.05). […] The currents at +40 mV in the presence of 10 μm pimaric acid was reduced from 2527±448 pA to 499±90 pA (p<0.01 versus before the application of and in the presence of 10 μm pimaric acid). […] The normalized data were well fitted with the Hill equation modified for the concentration-response relationship. […] The relationship in the presence of 10 μm pimaric acid was almost identical with that in its absence.

The target of assay [2] is T2, BKα (Rattus norvegicus, UniProt Q62976).
T2 construct: expressed in transfected cells; host or cells: HEK293
T2 sequence (Q62976 whole entry): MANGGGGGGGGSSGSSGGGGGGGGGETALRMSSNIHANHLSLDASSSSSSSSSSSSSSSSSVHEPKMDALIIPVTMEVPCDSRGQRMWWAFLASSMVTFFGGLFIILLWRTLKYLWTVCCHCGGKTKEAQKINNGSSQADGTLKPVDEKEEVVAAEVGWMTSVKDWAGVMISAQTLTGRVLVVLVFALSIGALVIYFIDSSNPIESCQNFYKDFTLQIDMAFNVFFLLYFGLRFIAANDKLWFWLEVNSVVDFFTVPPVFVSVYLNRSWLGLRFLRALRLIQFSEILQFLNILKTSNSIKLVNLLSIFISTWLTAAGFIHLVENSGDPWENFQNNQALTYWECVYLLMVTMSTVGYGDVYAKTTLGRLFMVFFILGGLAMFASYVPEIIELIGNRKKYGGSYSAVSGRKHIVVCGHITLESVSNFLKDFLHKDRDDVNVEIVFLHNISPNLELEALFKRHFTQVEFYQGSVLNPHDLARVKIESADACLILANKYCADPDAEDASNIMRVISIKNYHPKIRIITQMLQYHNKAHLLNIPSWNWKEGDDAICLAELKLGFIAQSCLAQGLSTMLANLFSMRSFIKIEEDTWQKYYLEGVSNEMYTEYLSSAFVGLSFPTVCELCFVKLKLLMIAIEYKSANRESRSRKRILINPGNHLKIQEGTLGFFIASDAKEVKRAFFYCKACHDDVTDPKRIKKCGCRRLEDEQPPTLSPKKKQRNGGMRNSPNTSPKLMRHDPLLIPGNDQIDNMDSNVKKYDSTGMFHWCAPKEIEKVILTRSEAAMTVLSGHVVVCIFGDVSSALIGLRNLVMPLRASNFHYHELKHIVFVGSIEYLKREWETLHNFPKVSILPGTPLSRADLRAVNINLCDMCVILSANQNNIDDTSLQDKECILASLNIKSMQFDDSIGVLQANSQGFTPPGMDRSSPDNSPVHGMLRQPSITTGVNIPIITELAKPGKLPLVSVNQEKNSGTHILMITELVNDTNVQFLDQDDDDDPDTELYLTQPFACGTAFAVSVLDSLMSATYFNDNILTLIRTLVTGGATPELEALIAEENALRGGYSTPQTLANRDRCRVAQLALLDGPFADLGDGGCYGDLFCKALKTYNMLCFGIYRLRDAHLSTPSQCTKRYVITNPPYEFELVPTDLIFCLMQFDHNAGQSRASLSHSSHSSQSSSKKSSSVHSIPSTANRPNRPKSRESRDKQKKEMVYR
Kind of assay: Single channel current recording by inside-out patch clamp, BKα expressed on HEK293 cells. The class given is cell-based. The text has this:
(§1) Calcium-activated potassium channel (hereinafter abbreviated as “BK channel” in Examples) functions with two kinds of proteins α (BKα) and β (BKβ) subunits being arranged in tetramers. BKα consists a main part of a channel and BKβ is an activity regulating factor. […] In accordance with a method of Ahring, et al. (Ahring P. K., et al., FEBS Lett., 415, pp. 67-70, 1997), cDNAs of BKα and BKβ1 genes derived from rat uterus smooth muscle (GenBank accession numbers; U55995 and AF020712) were introduced into HEK293 cells by using calcium phosphate coprecipitation transfection techniques, to constantly overexpress BKα or BKαβ.
(a) Single Channel Current Recording by Inside-Out Patch Clamp Technique
By using Inside-out patch clamp technique, fragments of cell membrane containing the channels were isolated, and by artificially controlling an environment of inside of the cell membrane, opening or closing of a single channel can be directly observed. This is a fully established method not only for functional analysis of the channel, but also for testing quantitative effects of the channel agonists (Hamil, O. P., et al., Pflgers Archiv., 391, pp. 85-100, 1981).
Under this condition, action and effect of pimaric acid for BKα was measured.
In Current Amplitude, 0 pA means a closing state. […] In FIG. 3, a relation between a concentration of pimaric acid and an effect of BK channel activation is shown under this condition. By addition of pimaric acid at concentration of 3 μm or more, a significant increase in channel opening probability was confirmed.
A general note: Patch clamp records ionic current or voltage across a cell membrane.

In assay [3] the target is T2, BKα. Nature of the assay: Membrane current recording by whole cell voltage-clamp, HEK293 cell expressing BKα channels. Format: cell-based.
Text: as §1
(b) Membrane Current Recording by Whole Cell Voltage-Clamp Technique
Membrane current of the whole cell by opening of BKα channels was recorded by Whole cell voltage-clamp technique. This technique is frequently employed to analyze the functions shown by the ion channels expressed in numbers on a cell membrane as a whole, and is a well established technique (Hamil, O. P. the above mentioned reference).

Assay [4] addresses T1, BKαβ1. Kind of assay: Whole-cell current recording (whole-cell patch clamp), HEK293 constantly expressing rat BKα+β1. The class given is cell-based. To be noted: pCa 6.5, depolarization −60 mV to +10 mV. Here is the method: According to the whole-cell patch clamp technique, whole-cell currents were recorded on HEK293 cell, in which rat BKα+β1 subunits were constantly expressed. All the experiments were carried out at 22-24° C.
Pipette solution (mM) 140 KCl, 4 MgCl2, 5 ATP, 10 HEPES, 5 EGTA (the pCa was adjusted to 6.5 by adding a suitable amount of CaCl2 to stabilize the pCa). The pH was adjusted to 7.2 with KOH.
Extracellular fluid (mM) 137 NaCl, 5.9 KCl, 2.2 CaCl2, 1.2 MgCl2, 14 Glucose, 10 HEPES. The pH was adjusted to 7.4 with NaOH.
(§2) Since the test compounds were highly aliphatic, and hard to dissolve in water, they were dissolved by DMSO and preserved as 30 mM stock solutions. On administration, final concentration in the DMSO solutions were made at most 0.03%. Incidentally, DMSO was confirmed not to have any influence on BK currents, when its concentration is 0.3% or less.
The whole-cell currents were recorded with the cells in which BK(α+β1) channels were constantly expressed, by the whole-cell patch clamp technique. The Ca^2+ concentration in the intracellular fluid was fixed at pCa 6.5 with Ca^2+-EGTA buffer. The pulse depolarizing from the resting potential −60 mV to +10 mV, was added for 150 mseconds, and the elicited currents were observed. By the depolarizing stimulus, moderately activated outward currents were observed, which are characteristic of BK(α+β1) channel (control in FIG. 4B). After establishing the whole cell, the recording was started at a point where stable current measurements were obtained for 20 minutes. […] After that, by washout, the current went back almost to the level prior to application of the test compounds (FIG. 4A). As a result of a statistical analysis based on the recordings of the 4 examples, the currents were activated by 1.90±0.21 times at concentration of 100 nM, 2.54±0.14 times at 300 nM, and 6.37±0.91 times at 1 μm, by this activating effect.

For assay [5], the target named is T1, BKαβ1. Kind of assay: BK channel currents in single HEK293 cell expressing BK(α+β1) channels (HEKBKαβ1) under whole-cell voltage clamp. The class given is cell-based. To be noted: 1 to 10 μm; pCa 6.5. The text has this: (§3) Effects of test compounds on BK channel currents were examined in single HEK293 cell expressing BK(α+β1) channels (hereinafter referred to as HEKBKαβ1) under whole-cell voltage clamp. The Ca^2+ concentration in the pipette solution was fixed at pCa 6.5 using a Ca^2+-EGTA buffer. Depolarization from −60 mV to +30 mV induced outward currents in both native HEK293 and HEKBKαβ1, but the current density was much higher in the latter (the current density at the peak: 11.0±1.8 and 95.2±20.9 pA/pF, n=5 and 6, respectively, p<0.05). […] This enhancement of outward current by pimaric acid could be removed completely by washout. Effects of other test compounds were also examined in this manner. The peak amplitude of outward current at +40 mV in the presence of 1, 3, and 10 μm resin acids was measured relative to the value taken just before the application (FIG. 6B).

In another assay the test system is native HEK293. Nature of the assay: Outward currents in native HEK293 under whole-cell voltage clamp. Particulars: 1 to 10 μm; pCa 6.5. The class given is cell-based, human.
Text: as §3

Assay [6] addresses T1, BKαβ1. Nature of the assay: Single-channel recording (inside-out patch clamp), HEK293 constantly expressing rat BKα+β1. The class given is cell-based. To be noted: pCa 7.0, +40 mV. On the procedure:
According to the inside-out patch clamp technique, a single channel current was recorded on HEK293, in which rat BKα+β1 subunits were constantly expressed. All the experiments were carried out at 22-24° C.
Intracellular fluid (mM) 140 KCl, 1.2 MgCl2, 14 Glucose, 5 EGTA (the pCa was adjusted to 7 by adding a suitable amount of CaCl2 to stabilize the pCa). The pH was adjusted to 7.2 with NaOH.
Extracellular fluid (mM) 140 KCl, 4 MgCl2, 5 ATP, 10 HEPES, 0.05 EGTA. The pH was adjusted to 7.2 with KOH.
as §2
In order to further confirm this point, a single channel current recording was carried out. The single channel current was recorded with respect to the cells in which BK(α+β1) channels were constantly expressed, by the inside-out patch clamp technique. The intracellular fluid (the fluid contacting the inner side of the cell membrane) was fixed at pCa 7.0. […] From these histograms, channel opening probability was calculated to show relation between the concentration and effect as shown in FIG. 5C.

T1 sequence (Q62976 whole entry): as above
T1 sequence (P97678 whole entry partner): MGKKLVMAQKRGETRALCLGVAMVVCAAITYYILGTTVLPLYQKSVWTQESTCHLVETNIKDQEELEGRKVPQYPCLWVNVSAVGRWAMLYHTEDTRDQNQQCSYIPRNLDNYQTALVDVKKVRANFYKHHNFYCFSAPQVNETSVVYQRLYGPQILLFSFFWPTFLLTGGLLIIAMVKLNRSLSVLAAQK

As for charybdotoxin [ChTX], the “current amplitude at +40 mV after ChTX” value on BKαβ1 [1] (100 nM ChTX in the absence of pimaric acid, before 1233±226 pA) came to 205±46 pA. In addition, on BKαβ1 [1] (100 nM ChTX in the presence of 10 μm pimaric acid, before 2527±448 pA), the “outward current at +40 mV after ChTX” value was 499±90 pA. In addition, on BKαβ1 [1] (absence of pimaric acid), the “C (constant; native K+ currents insensitive to ChTX)” value came to 0.077±0.0226 and the “nH (Hill coefficient)” value is 0.847±0.034. Further, at BKαβ1 [1] (presence of 10 μm pimaric acid), the “C (constant; native K+ currents insensitive to ChTX)” value came out at 0.0965±0.0388 and the “nH (Hill coefficient)” value is given as 0.982±0.161.
Consider `C=C[C@@]1(C)C=C2CC[C@@H]3[C@](C)(CCC[C@@]3(C)C(=O)O)[C@H]2CC1` [pimaric acid], for which the “increase of opening probability” value on BKα [2] (1 μM, Ca of inner side 0.3 μm, patch membrane potential +40 mV) is listed as “increased by three times”. Further, at BKα [2] (1 μm or 10 μm, +40 mV, Ca 0.1 μM), the “time of an opening state (histograms of 30 s current recordings)” value is “increased time of an opening state”. Besides, on BKα [2] (+40 mV, Ca 0.1 μM), the “concentration giving a significant increase in channel opening probability” value is given as at least 3 μm. Besides, the “channel activity (BKα single channel)” value at BKα [2] (added to solution of inner side of cell membrane at 10 μm or less, +40 mV, Ca 0.1 μM) was “significantly increased”. On BKα [2] (comparison with known compound), the “BK channel opening effect relative to NS-1619” value is recorded as at least 10 times. Also, the “BK channel opening effect relative to maxikdiol described in the reference” value at BKα [2] (comparison with literature value) was “at least three times or more”. Further, on BKα [3] (1 μm added to extracellular fluid, +60 mV), the “increase of BKα current” value is listed as “about 50%”. Also, the “activation of whole-cell current” value on BKαβ1 [4] (1 μm) is given as 1.92±0.24 times. On BKαβ1 [5], the “outward currents in HEKBKαβ1” value is “increased outward currents in a dose-dependent fashion”. Further, the “outward currents in native HEK293” value with native HEK293 is “did not change”. For the same compound, the “effect on the binding of ChTX to BK channels” value on BKαβ1 [1] (10 μm pimaric acid) was “does not affect the binding of ChTX to BK channels”. On BKαβ1 [1] (10 μm pimaric acid, control 1214±153 pA), the “outward current at +40 mV” value came to 2527±448 pA.
Consider `CC(C)c1c(Cl)cc2c(c1Cl)CC[C@H]1[C@](C)(C(=O)O)CCC[C@]21C` [dichlorodehydroabietic acid], for which the “activation of whole-cell current” value at BKαβ1 [4] (100 nM) is on record as 1.90±0.21 times; at BKαβ1 [4] (300 nM), 2.54±0.14 times; on BKαβ1 [4] (1 μm) it was 6.37±0.91 times. The “concentration at which channel activation was observed” value on BKαβ1 [6] (applied to inner side of cell membrane) is at least 100 nM. Further, at BKαβ1 [6], the “relation between concentration and channel opening probability” value is reported as “concentration-dependent”.
For the compound `CC[N+](CC)(CC)CC` [tetraethylammonium, reference compound], the “inhibition of the action of pimaric acid on BKα current” value at BKα [3] (1 mM tetraethylammonium) was “completely inhibited”.
